Results published in the supplement of paper PMC12463676, “Small-molecule dissolution of stress granules by redox modulation benefits ALS models” (Nature Chemical Biology, 2025).

Tests used:
[1] = compound: NC(=O)CCCCC1CCSS1 [lipoamide]; assay: thermal stability z-score vs DMSO; higher = more thermally stabilized by treatment; settings: HeLa, lipoamide concentration 100 µM
Method: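 Cellular thermal proteome profiling in HeLa cells. Cells were treated with 100 µM lipoamide for 1 h, with or without 1 mM arsenate for a further 1 h, then heated to ten temperatures (37-66.3 °C), and soluble protein was quantified by TMT mass spectrometry relative to 0.1% DMSO controls. The thermal stability score (sum of log2 fold changes minus the abundance score) was transformed to a z-score; mean of n = 3 experiments.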

[2] = compound: O=[As]([O-])(O)O.[K+] [potassium arsenate]; assay: as above; settings: HeLa; arsenate concentration 1 mM
Method: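 Cellular thermal proteome profiling in HeLa cells treated with 1 mM arsenate for 1 h (DMSO pretreatment), heated to ten temperatures (37-66.3 °C). Soluble protein was quantified by TMT mass spectrometry relative to DMSO controls; the thermal stability score was transformed to a z-score; mean of n = 3 experiments.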

[3] = arsenate co-treatment: 1 mM arsenate 1 h
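Also: each temperature applied for 3 min, abundance score taken as mean log2 fold change at the two lowest temperatures, z-score obtained by mean subtraction and division by SD.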

UniProt P16278, sequence (P16278 whole entry): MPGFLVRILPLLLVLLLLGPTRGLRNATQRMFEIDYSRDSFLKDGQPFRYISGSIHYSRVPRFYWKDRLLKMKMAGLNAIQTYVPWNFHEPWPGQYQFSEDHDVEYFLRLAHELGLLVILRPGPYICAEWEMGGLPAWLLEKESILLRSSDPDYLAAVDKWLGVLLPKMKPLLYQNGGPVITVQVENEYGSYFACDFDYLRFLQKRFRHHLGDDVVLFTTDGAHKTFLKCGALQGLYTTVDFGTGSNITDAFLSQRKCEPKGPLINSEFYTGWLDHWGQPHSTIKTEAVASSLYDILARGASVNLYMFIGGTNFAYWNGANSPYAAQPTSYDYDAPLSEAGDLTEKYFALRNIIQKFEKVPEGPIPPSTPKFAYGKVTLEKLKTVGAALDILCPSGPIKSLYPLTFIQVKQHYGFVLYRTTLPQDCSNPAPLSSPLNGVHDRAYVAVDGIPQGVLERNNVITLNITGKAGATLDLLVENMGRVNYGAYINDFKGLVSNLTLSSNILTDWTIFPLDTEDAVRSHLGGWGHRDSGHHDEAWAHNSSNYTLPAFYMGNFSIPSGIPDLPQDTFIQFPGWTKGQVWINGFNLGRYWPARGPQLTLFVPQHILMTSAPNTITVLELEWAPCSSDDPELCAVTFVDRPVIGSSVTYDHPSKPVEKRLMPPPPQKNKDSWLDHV
UniProt Q53HC9, sequence (Q53HC9 whole entry): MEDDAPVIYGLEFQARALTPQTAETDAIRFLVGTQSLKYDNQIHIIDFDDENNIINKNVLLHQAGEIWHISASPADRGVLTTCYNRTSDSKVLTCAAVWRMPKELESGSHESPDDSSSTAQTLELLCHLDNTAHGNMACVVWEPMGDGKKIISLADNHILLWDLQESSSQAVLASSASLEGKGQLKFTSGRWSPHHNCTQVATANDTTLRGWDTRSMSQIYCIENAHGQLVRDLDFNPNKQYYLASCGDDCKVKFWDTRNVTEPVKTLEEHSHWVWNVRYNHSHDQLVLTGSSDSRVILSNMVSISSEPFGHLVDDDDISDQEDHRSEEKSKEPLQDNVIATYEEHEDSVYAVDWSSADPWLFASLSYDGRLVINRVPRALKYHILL
UniProt Q3B726, sequence (Q3B726 whole entry): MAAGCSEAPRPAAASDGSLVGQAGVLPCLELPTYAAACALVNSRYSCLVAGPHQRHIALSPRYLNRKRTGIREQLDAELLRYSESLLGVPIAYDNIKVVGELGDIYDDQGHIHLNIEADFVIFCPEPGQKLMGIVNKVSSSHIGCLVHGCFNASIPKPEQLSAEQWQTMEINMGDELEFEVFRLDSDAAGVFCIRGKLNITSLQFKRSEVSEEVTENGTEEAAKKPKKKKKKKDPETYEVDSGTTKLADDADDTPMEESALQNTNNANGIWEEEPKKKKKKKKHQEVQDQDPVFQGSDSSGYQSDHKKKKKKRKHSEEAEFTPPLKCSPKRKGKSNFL
UniProt P39656, sequence (P39656 whole entry): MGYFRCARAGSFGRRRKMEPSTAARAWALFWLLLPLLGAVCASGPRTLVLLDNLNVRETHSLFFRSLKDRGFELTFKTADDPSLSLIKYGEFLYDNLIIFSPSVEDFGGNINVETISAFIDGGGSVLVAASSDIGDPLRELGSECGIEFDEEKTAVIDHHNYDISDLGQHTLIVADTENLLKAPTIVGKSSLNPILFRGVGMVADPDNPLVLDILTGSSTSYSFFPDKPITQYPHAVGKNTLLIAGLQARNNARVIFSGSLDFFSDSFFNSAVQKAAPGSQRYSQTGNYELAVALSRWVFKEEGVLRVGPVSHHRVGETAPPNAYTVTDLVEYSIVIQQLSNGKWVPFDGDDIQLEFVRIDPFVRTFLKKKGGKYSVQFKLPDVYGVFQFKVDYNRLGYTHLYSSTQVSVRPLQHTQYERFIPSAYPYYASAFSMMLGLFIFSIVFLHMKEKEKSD
UniProt Q4KMP7, sequence (Q4KMP7 whole entry): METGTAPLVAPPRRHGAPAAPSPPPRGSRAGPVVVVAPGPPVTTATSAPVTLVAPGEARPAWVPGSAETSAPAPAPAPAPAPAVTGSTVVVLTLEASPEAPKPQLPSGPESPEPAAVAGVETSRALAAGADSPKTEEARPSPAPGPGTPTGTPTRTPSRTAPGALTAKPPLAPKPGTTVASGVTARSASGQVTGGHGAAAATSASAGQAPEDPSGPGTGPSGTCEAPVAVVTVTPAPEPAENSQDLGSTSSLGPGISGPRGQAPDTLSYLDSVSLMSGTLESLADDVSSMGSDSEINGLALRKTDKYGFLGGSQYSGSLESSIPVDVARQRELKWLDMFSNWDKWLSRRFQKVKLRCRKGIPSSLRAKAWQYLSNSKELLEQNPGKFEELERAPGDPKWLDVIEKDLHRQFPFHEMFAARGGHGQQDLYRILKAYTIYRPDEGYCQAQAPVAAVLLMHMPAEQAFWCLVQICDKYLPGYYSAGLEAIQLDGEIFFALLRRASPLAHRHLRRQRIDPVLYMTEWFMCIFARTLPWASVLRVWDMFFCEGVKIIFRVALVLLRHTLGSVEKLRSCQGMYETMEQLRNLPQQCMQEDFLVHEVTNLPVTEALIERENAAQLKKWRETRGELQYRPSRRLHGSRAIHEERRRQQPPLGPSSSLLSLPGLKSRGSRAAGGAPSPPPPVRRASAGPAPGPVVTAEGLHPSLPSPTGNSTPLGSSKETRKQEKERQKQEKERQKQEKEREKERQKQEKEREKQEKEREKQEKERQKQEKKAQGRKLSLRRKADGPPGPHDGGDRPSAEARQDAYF
UniProt P11047, sequence (P11047 whole entry): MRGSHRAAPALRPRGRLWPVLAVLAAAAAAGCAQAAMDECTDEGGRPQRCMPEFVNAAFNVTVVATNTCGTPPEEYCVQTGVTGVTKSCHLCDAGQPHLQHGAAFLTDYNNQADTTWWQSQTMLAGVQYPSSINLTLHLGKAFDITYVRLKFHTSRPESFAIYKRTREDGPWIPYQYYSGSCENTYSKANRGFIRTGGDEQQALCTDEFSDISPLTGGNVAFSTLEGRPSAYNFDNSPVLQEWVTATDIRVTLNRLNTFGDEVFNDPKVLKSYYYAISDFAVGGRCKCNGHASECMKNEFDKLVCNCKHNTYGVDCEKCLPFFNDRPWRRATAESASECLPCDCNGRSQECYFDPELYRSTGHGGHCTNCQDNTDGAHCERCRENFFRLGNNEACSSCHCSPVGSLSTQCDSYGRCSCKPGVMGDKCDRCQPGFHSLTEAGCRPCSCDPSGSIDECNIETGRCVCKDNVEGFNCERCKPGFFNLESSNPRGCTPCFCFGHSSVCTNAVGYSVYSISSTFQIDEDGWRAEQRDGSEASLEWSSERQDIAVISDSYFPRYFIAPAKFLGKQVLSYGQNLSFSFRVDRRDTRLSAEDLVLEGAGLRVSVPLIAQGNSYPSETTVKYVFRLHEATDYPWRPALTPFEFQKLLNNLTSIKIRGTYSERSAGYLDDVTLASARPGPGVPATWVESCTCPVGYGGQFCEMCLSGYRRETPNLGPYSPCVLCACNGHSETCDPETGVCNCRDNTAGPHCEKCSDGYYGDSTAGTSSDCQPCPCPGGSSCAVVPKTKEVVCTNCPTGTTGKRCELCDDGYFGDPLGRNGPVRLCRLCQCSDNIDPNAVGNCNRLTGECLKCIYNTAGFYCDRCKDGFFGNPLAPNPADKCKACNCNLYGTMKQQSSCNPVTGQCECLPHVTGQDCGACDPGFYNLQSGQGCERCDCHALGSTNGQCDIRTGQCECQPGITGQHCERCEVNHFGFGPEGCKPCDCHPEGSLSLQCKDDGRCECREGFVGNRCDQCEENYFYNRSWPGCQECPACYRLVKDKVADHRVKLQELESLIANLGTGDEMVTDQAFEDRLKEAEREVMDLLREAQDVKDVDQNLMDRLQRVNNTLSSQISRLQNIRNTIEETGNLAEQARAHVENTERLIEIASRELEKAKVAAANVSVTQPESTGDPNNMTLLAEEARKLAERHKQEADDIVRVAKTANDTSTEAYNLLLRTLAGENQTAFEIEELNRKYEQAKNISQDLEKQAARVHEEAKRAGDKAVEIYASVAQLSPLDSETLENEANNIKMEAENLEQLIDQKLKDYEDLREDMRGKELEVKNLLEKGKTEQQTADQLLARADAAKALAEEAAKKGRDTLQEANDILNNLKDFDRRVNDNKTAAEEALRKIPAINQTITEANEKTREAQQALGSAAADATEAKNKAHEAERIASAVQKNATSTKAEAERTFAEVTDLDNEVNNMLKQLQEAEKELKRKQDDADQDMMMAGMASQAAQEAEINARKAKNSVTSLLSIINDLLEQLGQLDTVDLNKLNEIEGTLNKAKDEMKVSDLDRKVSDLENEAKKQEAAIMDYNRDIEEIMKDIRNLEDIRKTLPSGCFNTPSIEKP
UniProt O14662, sequence (O14662 whole entry): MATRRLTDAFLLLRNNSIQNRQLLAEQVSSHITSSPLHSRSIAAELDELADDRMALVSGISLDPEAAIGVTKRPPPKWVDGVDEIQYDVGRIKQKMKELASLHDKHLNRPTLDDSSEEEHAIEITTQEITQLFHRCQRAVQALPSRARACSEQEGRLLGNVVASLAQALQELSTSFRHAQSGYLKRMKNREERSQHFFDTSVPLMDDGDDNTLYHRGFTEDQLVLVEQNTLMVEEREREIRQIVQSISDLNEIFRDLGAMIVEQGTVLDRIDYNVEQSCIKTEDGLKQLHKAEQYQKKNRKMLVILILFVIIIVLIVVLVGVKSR
UniProt Q6P1Q0, sequence (Q6P1Q0 whole entry): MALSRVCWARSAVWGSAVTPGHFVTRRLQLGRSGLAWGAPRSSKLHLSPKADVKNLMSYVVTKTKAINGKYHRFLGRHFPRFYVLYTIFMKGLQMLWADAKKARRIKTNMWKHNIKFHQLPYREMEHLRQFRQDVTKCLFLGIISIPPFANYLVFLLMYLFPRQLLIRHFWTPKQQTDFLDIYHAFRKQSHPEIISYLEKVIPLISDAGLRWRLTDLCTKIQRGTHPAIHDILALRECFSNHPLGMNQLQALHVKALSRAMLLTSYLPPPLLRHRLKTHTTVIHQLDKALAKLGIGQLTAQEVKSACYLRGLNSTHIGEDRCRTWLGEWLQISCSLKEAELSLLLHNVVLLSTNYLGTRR

Target	thermal stability z-score [1, 3]	thermal stability z-score ([1]; arsenate co-treatment: none)	thermal stability z-score [2]
ARL14EP (UniProt Q8N8R7)	-0.0926	-0.15	-0.3
TMED3 (UniProt Q9Y3Q3)	-0.694	-0.398	0.316
XRN2 (UniProt Q9H0D6)	0.575	0.495	-0.818
RPL15 (UniProt P61313)	0.537	0.113	-0.589
CSTF1 (UniProt Q05048)	-0.533	0.0516	-1.45
CDH10 (UniProt Q9Y6N8)	0.493	0.14	1.02
MRPL13 (UniProt Q9BYD1)	-0.175	-0.451	-0.201
GNA11 (UniProt P29992)	0.729	0.404	-1.21
ZC3HC1 (UniProt Q86WB0)	-0.377	0.164	-0.364
DDOST (UniProt P39656)	-3.14	-2.49	0.00935
AKAP10 (UniProt O43572)	-0.128	-0.105	-0.229
C19ORF43 (UniProt Q9BQ61)	0.121	0.217	-0.0224
TMEM206 (UniProt Q9H813)	0.109	0.0248	-0.299
CDC42SE1 (UniProt Q9NRR8)	-0.0857	0.383	-0.154
ST13 (UniProt P50502)	0.433	0.404	0.962
KANK1 (UniProt Q14678)	0.282	0.616	0.739
TSSC1 (UniProt Q53HC9)	0.436	-0.204	-0.25
GLB1 (UniProt P16278)	-0.564	-0.0527	-0.438
LETMD1 (UniProt Q6P1Q0)	0.197	-0.0626	0.0642
ATXN2 (UniProt Q99700)	0.168	0.133	-0.245
INTS7 (UniProt Q9NVH2)	0.874	-0.103	-0.0595
AAAS (UniProt Q9NRG9)	-0.373	-0.12	0.108
RCCD1 (UniProt A6NED2)	0.452	0.179	-0.297
TWISTNB (UniProt Q3B726)	-0.926	0.0342	-1.57

Target	thermal stability z-score [1, 3]	thermal stability z-score ([1]; arsenate co-treatment: none)	thermal stability z-score [2]
DNAJC16 (UniProt Q9Y2G8)	-0.913	-2.01	0.00733
WNK1 (UniProt Q9H4A3)	0.149	-0.0327	0.386
LAMC1 (UniProt P11047)	-2.97	-2.6	1.15
ATP11A (UniProt P98196)	-0.441	0.419	-0.309
EHBP1 (UniProt Q8NDI1)	0.0509	0.183	-0.166
DYNLL2 (UniProt Q96FJ2)	0.256	0.641	0.118
DUS1L (UniProt Q6P1R4)	0.178	-0.547	0.0119
NBEAL2 (UniProt Q6ZNJ1)	-0.0914	0.0428	0.0522
MON2 (UniProt Q7Z3U7)	0.0206	0.307	0.63
MLYCD (UniProt O95822)	0.771	0.713	0.837
TCF12 (UniProt Q99081)	-0.124	-0.0813	-0.203
MAGOH|MAGOHB	0.0953	0.171	0.0412
MCM7 (UniProt P33993)	-0.43	-0.294	-0.228
STX16 (UniProt O14662)	-0.63	0.276	0.553
KIAA1524 (UniProt Q8TCG1)	-0.00458	-0.0673	0.662
DPH1 (UniProt Q9BZG8)	-0.233	-0.119	-1.29
ADAR (UniProt P55265)	0.419	0.448	-1.48
CUL5 (UniProt Q93034)	0.631	0.636	0.131
ZNF593 (UniProt O00488)	4.3	2.19	-6.67
ORC3 (UniProt Q9UBD5)	-0.0418	-0.104	-0.00481
C2ORF47 (UniProt Q8WWC4)	0.0998	-0.181	1.09
VIPAS39 (UniProt Q9H9C1)	-0.0571	0.338	0.358
CCBL1|KYAT1	0.0425	0.343	0.447
NCAPD3 (UniProt P42695)	0.394	0.105	0.161

Target	thermal stability z-score [1, 3]	thermal stability z-score ([1]; arsenate co-treatment: none)	thermal stability z-score [2]
NUDCD1 (UniProt Q96RS6)	-0.287	-0.282	-0.0861
SF3A3 (UniProt Q12874)	0.351	0.639	-0.503
MCTS1 (UniProt Q9ULC4)	-0.523	-0.0571	-1.02
TNIP1 (UniProt Q15025)	-0.261	-0.828	-0.0487
NCS1 (UniProt P62166)	-0.202	-0.195	-0.124
LZTR1 (UniProt Q8N653)	-0.12	0.0373	-0.137
CALCOCO2 (UniProt Q13137)	0.172	0.108	0.743
OSBPL3 (UniProt Q9H4L5)	-1.67	-0.909	-0.969
MAN1A1 (UniProt P33908)	0.547	0.362	0.104
MAMLD1 (UniProt Q13495)	0.0249	0.146	0.345
COX7B (UniProt P24311)	-0.0929	-0.0319	-0.0702
OSGEP (UniProt Q9NPF4)	-0.0754	0.487	-0.208
LATS1 (UniProt O95835)	-0.183	-0.189	-0.0262
TCEB1 (UniProt Q15369)	-0.0847	-0.122	-0.0354
PRPS1 (UniProt P60891)	0.0132	-0.285	-1.1
RPS6KB1 (UniProt P23443)	-0.0619	0.679	0.138
RHOF (UniProt Q9HBH0)	0.288	0.301	0.478
RANBP3 (UniProt Q9H6Z4)	-0.326	0.21	-0.0109
TBC1D10B (UniProt Q4KMP7)	-0.825	-0.121	-0.503
FXR1 (UniProt P51114)	0.487	0.714	0.794
WDR61 (UniProt Q9GZS3)	0.936	0.285	-0.236
SNAP29 (UniProt O95721)	-0.254	0.547	0.554
PTGR2 (UniProt Q8N8N7)	2.64	1.03	0.744
